Results from patent US20240246941A1, “SUBSTITUTED 4-(3-AMINOPROP-1-YL)AMINOQUINOLINE ANALOGS AS MODULATORS OF MELANOMA-ASSOCIATED ANTIGEN 11 UBIQUITIN LIGASE” (ST. JUDE CHILDREN'S RESEARCH HOSPITAL, INC., priority 2020, published 2024).
Where two headings read alike, the source gives them in different places.

Target: interaction between GST-MAGEA11 MHD and FAM-PCF11_4 peptide (MAGE-A11:PCF11) (Homo sapiens (Human), UniProt P43364)
Assay: TR-FRET dose response competition assay for disruption of MAGE-A11:PCF11 binding
How it was run: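 Competition TR-FRET at room temperature in 50 mM Tris pH 7.5, 20 mM MgCl2, 0.1 mg/ml BSA, 1 mM DTT: final 5 nM GST-MAGEA11 MHD, 5 nM Tb-anti-GST, 200 nM FAM-PCF11_4, 90 min. Ratio 520/490 nm converted to % inhibition; IC50 from sigmoidal fit.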

[1] = Dose response TR-FRET screening of nine scaffold groups against MAGE-A11:PCF11, read-out: consensus IC50
[2] = Table 8, representative compounds, read-out: TR-FRET IC50
[3] = Table 5, dose response TR-FRET screening of 59 quinoline compounds against MAGE-A11:PCF11, read-out: TR-FRET IC50

Sequence of interaction between GST-MAGEA11 MHD and FAM-PCF11_4 peptide (MAGE-A11:PCF11) (P43364 218-429): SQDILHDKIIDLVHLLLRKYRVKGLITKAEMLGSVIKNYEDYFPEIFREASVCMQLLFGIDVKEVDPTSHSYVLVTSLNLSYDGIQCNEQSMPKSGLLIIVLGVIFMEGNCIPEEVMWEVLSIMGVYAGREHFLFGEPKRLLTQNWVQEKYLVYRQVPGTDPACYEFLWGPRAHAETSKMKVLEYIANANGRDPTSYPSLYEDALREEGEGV

SMILES	IC50 [1] [µM]	also measured
O=C(Cn1cnc2cc(-c3ccccc3)sc2c1=O)NCc1ccccc1OC(F)(F)F [SJ000456118-1]	69.9	
C=C(C)Cn1cnc2cc(-c3ccc(Cl)cc3)sc2c1=O [SJ000456507-1]	69.9	
CCCn1c(-c2ccc(F)cc2)nc2c1c(=O)[nH]c(=O)n2Cc1ccccc1 [SJ000456724-1]	69.9	
COc1ccc(CNC(=O)Cn2cnc3cc(-c4ccc(Cl)cc4)sc3c2=O)cc1 [SJ000457620-1]	69.9	
COc1ccc(-c2cc3ncn(CC(=O)NCc4ccc(Cl)cc4)c(=O)c3s2)cc1 [SJ000457991-1]	69.9	
N#CCCn1cnc2cc(-c3ccc(F)cc3)sc2c1=O [SJ000458551-1]	69.9	
CCCn1c(=O)[nH]c(=O)c2c1nc(-c1ccc(OC(F)F)c(OC)c1)n2CCOC [SJ000459257-1]	69.9	
CCCCCn1c(-c2cccc(F)c2)nc2c1c(=O)[nH]c(=O)n2CCCC [SJ000460165-1]	69.9	
CCCn1c(=O)[nH]c(=O)c2c1nc(-c1ccc(F)c(F)c1)n2CCOC [SJ000460758-1]	69.9	
CC(NC=O)c1ccc2c(c1)c1ccccc1n2C (centres unmarked) [SJ000461804-1]	69.9	
CCn1c2ccccc2c2cc(C(C)NC=O)ccc21 (centres unmarked) [SJ000461805-1]	69.9	
CC1CN(c2oc(-c3ccc([N+](=O)[O-])cc3)nc2C#N)CC(C)O1 (centres unmarked) [SJ000478204-1]	69.9	
CC1CN(c2oc(-c3ccc(Cl)cc3)nc2C#N)CC(C)O1 (centres unmarked) [SJ000478208-1]	69.9	
COc1ccc(-c2nc(C#N)c(N3CC(C)OC(C)C3)o2)cc1 (centres unmarked) [SJ000478212-1]	69.9	
CCOc1ccc(-c2nc(C#N)c(N3CC(C)OC(C)C3)o2)cc1 (centres unmarked) [SJ000478356-1]	69.9	
Cc1ccc(-c2nc(C#N)c(N3CC(C)OC(C)C3)o2)cc1 (centres unmarked) [SJ000478358-1]	69.9	
CC1CN(c2oc(-c3ccc(F)cc3)nc2C#N)CC(C)O1 (centres unmarked) [SJ000478453-1]	69.9	
CCn1c2ccccc2c2cc(CNCC(C)O)ccc21 (centres unmarked) [SJ000505727-1]	69.9	
O=C1c2ccccc2NC(c2ccc(Br)cc2)N1Cc1ccc(Cl)cc1 (centres unmarked) [SJ000508213-1]	69.9	
COc1ccc(CN2C(=O)c3ccccc3NC2c2ccc(F)cc2)cc1 (centres unmarked) [SJ000510740-1]	69.9	
COc1ccc(CN2C(=O)c3ccccc3NC2c2ccc(C)cc2)cc1 (centres unmarked) [SJ000510741-1]	69.9	
COc1ccc(C2Nc3ccccc3C(=O)N2Cc2ccc(F)cc2)cc1 (centres unmarked) [SJ000510742-1]	69.9	

SMILES	IC50 [1] [µM]	also measured
COc1ccc(C2Nc3ccccc3C(=O)N2Cc2ccc(C)cc2)cc1 (centres unmarked) [SJ000510743-1]	69.9	
COc1ccc(CN2C(=O)c3ccccc3NC2c2ccc(OC)cc2)cc1 (centres unmarked) [SJ000510744-1]	69.9	
COc1ccc(CN2C(=O)c3ccccc3NC2c2ccc([N+](=O)[O-])cc2)cc1 (centres unmarked) [SJ000510745-1]	69.9	
CN(Cc1ccno1)C(=O)c1ccc2c(c1)c1ccccc1n2C [SJ000516830-1]	69.9	
Cc1cc(-c2nc3c(c(=O)[nH]c(=O)n3C)n2C)ccc1Cl [SJ000517919-1]	69.9	
Cn1c(-c2ccc3c(c2)OCO3)nc2c1c(=O)[nH]c(=O)n2C [SJ000518479-1]	69.9	
COc1cc(C)c2c(Oc3cccc(C(F)(F)F)c3)c(OC)cc(NC(C)CCCN)c2n1 (centres unmarked) [SJ000518991]		IC50 [2]: > 65.7 µM
CN(C)C1=C2C=CC=CC2C(CNCCCNc2ccnc3cc(Cl)ccc23)C=C1 (centres unmarked) [SJ000520354]		IC50 [2]: 69.9 µM
Clc1ccc2c(NCCCN(Cc3ccccc3)Cc3ccc4[nH]ccc4c3)ccnc2c1 [SJ000520430-1]		IC50 [3]: 41.7 µM
Clc1ccc2c(NCCCN(Cc3ccccc3)Cc3c[nH]c4ccccc34)ccnc2c1 [SJ000520433-1]		IC50 [3]: > 70 µM
Clc1ccc2c(NCCCCN(Cc3ccccc3)Cc3ccc4[nH]ccc4c3)ccnc2c1 [SJ000520434-1]		IC50 [3]: 23.4 µM
COC1CCC(C(F)(F)F)C1CN(CCCCNc1ccnc2cc(Cl)ccc12)Cc1ccccc1 (centres unmarked) [SJ000520444-1]		IC50 [3]: > 70 µM
Clc1ccc2c(NCCCCN(Cc3ccccc3)Cc3csc4ccccc34)ccnc2c1 [SJ000520446-1]		IC50 [3]: > 70 µM
Cc1ccc(F)cc1CN(CCCCNc1ccnc2cc(Cl)ccc12)Cc1ccccc1 [SJ000520449-1]		IC50 [3]: > 70 µM
FC(F)(F)Oc1ccc(CN(CCCCNc2ccnc3cc(Cl)ccc23)Cc2ccccc2)cc1 [SJ000520451-1]		IC50 [3]: > 70 µM
FC(F)(F)Oc1cccc(CN(CCCCNc2ccnc3cc(Cl)ccc23)Cc2ccccc2)c1 [SJ000520457-1]		IC50 [3]: > 70 µM
CCCN(CCCNc1ccnc2cc(C(F)(F)F)ccc12)CCC(C)(C)C [SJ000520476-1]		IC50 [3]: > 70 µM
FC(F)(F)c1ccccc1CNCCCNc1ccnc2cc(Cl)ccc12 [SJ000520908-2]	69.9	
FC(F)(F)c1ccccc1CNCCCNc1ccnc2cc(Cl)ccc12 [SJ000520908]		IC50 [2]: 69.9 µM
Clc1ccc2c(NCCCNCc3ccc4[nH]ccc4c3)ccnc2c1 [SJ000520909-2]	67.1	
Fc1c(F)c(F)c(CNCCCNc2ccnc3cc(Cl)ccc23)c(F)c1F [SJ000520910-1]	69.9	
Fc1c(F)c(F)c(CNCCCNC2CCNC3(Cl)CCC23)c(F)c1F (centres unmarked) [SJ000520910]		IC50 [2]: 69.9 µM

SMILES	IC50 [1] [µM]	also measured
Cc1cc(C)c(CNCCCNc2ccnc3cc(Cl)ccc23)c(C)c1 [SJ000520911-2]	68.1	
Cc1cc(C)c(CNCCCNc2ccnc3cc(Cl)ccc23)c(C)c1 [SJ000520911]		IC50 [2]: 68.1 µM
CCCN(CCCNc1ccnc2cc(C(F)(F)F)ccc12)Cc1ccc(CC)cc1 [SJ000521009-2]		IC50 [3]: > 70 µM
COC(=O)CCCCCNCCCNc1ccnc2cc(Cl)ccc12 [SJ000521021-1]		IC50 [3]: 31.4 µM
FC(F)(F)Oc1cccc(CNCCCNc2ccnc3cc(Cl)ccc23)c1 [SJ000521022-2]	69.9	
FC(F)(F)Oc1cccc(CNCCCNc2ccnc3cc(Cl)ccc23)c1 [SJ000521022]		IC50 [2]: 69.9 µM
FC(F)(F)c1cccc(CNCCCNc2ccnc3cc(Cl)ccc23)c1 [SJ000521024-1]	69.9	
FC(F)(F)c1cccc(CNCCCNc2ccnc3cc(Cl)ccc23)c1 [SJ000521024]		IC50 [2]: 69.9 µM
FC(F)(F)Oc1ccc(CNCCCNc2ccnc3cc(Cl)ccc23)cc1 [SJ000521025-1]	69.9	
FC(F)(F)Oc1ccc(CNCCCNc2ccnc3cc(Cl)ccc23)cc1 [SJ000521025]		IC50 [2]: 69.9 µM
COc1ccc(F)c(CNCCCNc2ccnc3cc(Cl)ccc23)c1 [SJ000521030-1]	69.9	
COc1ccc(F)c(CNCCCNc2ccnc3cc(Cl)ccc23)c1 [SJ000521030]		IC50 [2]: 69.9 µM
Fc1cccc(C(F)(F)F)c1CNCCCNc1ccnc2cc(Cl)ccc12 [SJ000521031-1]	69.9	
Fc1cccc(C(F)(F)F)c1CNCCCNc1ccnc2cc(Cl)ccc12 [SJ000521031]		IC50 [2]: 69.9 µM
Clc1ccc2c(NCCCNCc3cc4ccccc4s3)ccnc2c1 [SJ000521032-1]		IC50 [3]: > 70 µM
Clc1ccc2c(NCCCNCc3csc4ccccc34)ccnc2c1 [SJ000521033-1]		IC50 [3]: > 70 µM
COc1ccc(OC(F)(F)F)cc1CNCCCNc1ccnc2cc(Cl)ccc12 [SJ000521035-1]	69.9	
COc1ccc(OC(F)(F)F)cc1CNCCCNc1ccnc2cc(Cl)ccc12 [SJ000521035]		IC50 [2]: 69.9 µM
COc1ccc(C(F)(F)F)cc1CNCCCNc1ccnc2cc(Cl)ccc12 [SJ000521036-1]	69.9	
COc1ccc(C(F)(F)F)cc1CNCCCNc1ccnc2cc(Cl)ccc12 [SJ000521036]		IC50 [2]: 69.9 µM
CCc1ccc(CNCCCNc2ccnc3cc(Cl)ccc23)cc1 [SJ000521039-1]	69.9	
